#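 Step 1: Grow cells in 96-well plates. Step 2: Expose to compound for 48 hours at 5 concentrations. Step 3: Interpolate endpoints linearly; if unreached, use highest concentration. GI50 marks 50% less growth. TGI marks complete inhibition of growth.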
# How the values were obtained:
# Experiment in all cases: DTP human tumour cell line panel, 48 h
# HCT-116 colon = tested on: HCT-116 colon
# HOP-92 NSCLC = tested on: HOP-92 NSCLC
# HT29 colon = tested on: HT29 colon
# NCI-H460 lung = tested on: NCI-H460 lung
# OVCAR-3 ovarian = tested on: OVCAR-3 ovarian
# OVCAR-5 ovarian = tested on: OVCAR-5 ovarian
# OVCAR-8 ovarian = tested on: OVCAR-8 ovarian
# RPMI-8226 leukemia = tested on: RPMI-8226 leukemia
# SNB-75 CNS = tested on: SNB-75 CNS
# UACC-62 melanoma = tested on: UACC-62 melanoma
SMILES,GI50 (HCT-116 colon),TGI (HCT-116 colon),GI50 (HOP-92 NSCLC),TGI (HOP-92 NSCLC),GI50 (HT29 colon),TGI (HT29 colon),GI50 (NCI-H460 lung),TGI (NCI-H460 lung),GI50 (OVCAR-3 ovarian),TGI (OVCAR-3 ovarian),GI50 (OVCAR-5 ovarian),TGI (OVCAR-5 ovarian),GI50 (OVCAR-8 ovarian),TGI (OVCAR-8 ovarian),GI50 (RPMI-8226 leukemia),TGI (RPMI-8226 leukemia),GI50 (SNB-75 CNS),TGI (SNB-75 CNS),GI50 (UACC-62 melanoma),TGI (UACC-62 melanoma)
COc1cc2c3c(n(CCCCN)c(=O)c2cc1OC)-c1cc2c(cc1C3=O)OCO2,0.234 µM,0.797 µM,0.487 µM,2.43 µM,0.586 µM,25 µM,0.114 µM,2.07 µM,1.01 µM,2.67 µM,4.97 µM,12.3 µM,0.71 µM,13.1 µM,0.351 µM,1.31 µM,0.778 µM,5.5 µM,0.216 µM,1.04 µM
COC(=O)c1ccccc1OCc1cc(=O)oc2ccc(C)cc12,,> 100 µM,,> 74.7 µM,,> 100 µM,,> 100 µM,,> 100 µM,,> 100 µM,,> 100 µM,,> 100 µM,,45.5 µM,,> 66.6 µM
COc1cccc(-n2nc(C)c3c(N/N=C(\C)c4ccncc4)ncnc32)c1,> 24.2 µM,> 25 µM,1.86 µM,16.9 µM,> 25 µM,> 25 µM,> 25 µM,> 25 µM,> 25 µM,> 25 µM,> 25 µM,> 25 µM,> 25 µM,> 25 µM,> 25 µM,> 25 µM,> 9.22 µM,> 25 µM,> 25 µM,> 25 µM
Nc1nc(N)c2nc(CNc3ccc(C(=O)NC(CC(=O)O)C(=O)O)cc3)cnc2n1 (stereo not drawn),0.0773 µM,> 100 µM,> 100 µM,> 100 µM,0.542 µM,> 100 µM,0.354 µM,> 100 µM,0.694 µM,> 100 µM,16.3 µM,> 100 µM,0.589 µM,> 100 µM,6.43 µM,> 100 µM,22.2 µM,> 100 µM,3.09 µM,> 100 µM
CC(=O)NNc1nc(C)c(C(=O)/C=C/c2ccccc2Cl)s1,,,,> 100 µM,,> 100 µM,,> 100 µM,,> 100 µM,,> 100 µM,,> 100 µM,,> 100 µM,,> 100 µM,,> 100 µM
Cc1cc2c(C)nn(Cc3ccccc3)c2c(C(N)=O)c1C,,> 100 µM,,> 100 µM,,> 100 µM,,> 100 µM,,> 100 µM,,> 100 µM,,> 100 µM,,> 100 µM,,58.8 µM,,> 100 µM
O=C(O)C1OC1(c1cccc(Cl)c1)c1ccccc1Cl (stereo not drawn),,43.7 µM,,94.4 µM,,64.7 µM,,> 100 µM,,46.1 µM,,> 100 µM,,> 100 µM,,94.8 µM,,57.6 µM,,35 µM
CCn1cnc(C[C@H](NC(=O)[C@@H](NC(=O)Nc2cc(C(F)(F)F)cc(C(F)(F)F)c2)C(C)C)C(=O)OC)c1,1.86 µM,3.93 µM,6.88 µM,> 10 µM,2.02 µM,4.1 µM,2.13 µM,4.43 µM,1.82 µM,3.44 µM,4.98 µM,> 10 µM,1.95 µM,3.74 µM,2.76 µM,8.45 µM,1.61 µM,6.82 µM,6.45 µM,> 10 µM
CNC(=O)c1cccc2cc(Oc3ccnc4cc(OCC5(N)CC5)c(OC)cc34)ccc12,5.2 µM,17.8 µM,6.89 µM,21 µM,6.73 µM,21.1 µM,5.12 µM,18.1 µM,8.86 µM,23.7 µM,6.94 µM,19.3 µM,8.77 µM,27.4 µM,12.9 µM,39.7 µM,0.76 µM,15.5 µM,4.03 µM,15.9 µM
O=C(CC(=O)C1=CNc2ccccc2S1)C(=O)Nc1ccc(Cl)cc1,,> 50 µM,,> 50 µM,,> 50 µM,,> 50 µM,,> 50 µM,,> 50 µM,,> 50 µM,,> 50 µM,,> 50 µM,,> 50 µM
O=C(Nc1cccc(-n2cc(-c3ccncc3)c(-c3ccc(Cl)c(O)c3)n2)c1)c1ccc(N2CCOCC2)c(C(F)(F)F)c1,2.87 µM,> 50 µM,0.555 µM,3.81 µM,14.4 µM,> 50 µM,1.72 µM,14.8 µM,4.81 µM,> 50 µM,> 50 µM,> 50 µM,3.16 µM,> 50 µM,1.4 µM,12.5 µM,1.3 µM,> 50 µM,3.26 µM,18.4 µM
COC1=CC(c2ccc[nH]2)=N/C1=C\c1[nH]c(C)c(C(=O)CCCCC(=O)NC(C)(C)C)c1C,1.2 µM,2.43 µM,1.54 µM,4.97 µM,0.552 µM,3.11 µM,1.87 µM,4.52 µM,1.22 µM,2.73 µM,1.89 µM,8.73 µM,2.25 µM,5.45 µM,0.237 µM,1.64 µM,2.79 µM,9 µM,3.59 µM,10.8 µM
Cc1ccc(C(CC(=O)c2ccccc2)C2C(=O)NC(=O)NC2=O)cc1 (stereo not drawn),> 100 µM,> 100 µM,> 100 µM,> 100 µM,> 100 µM,> 100 µM,> 100 µM,> 100 µM,> 100 µM,> 100 µM,> 100 µM,> 100 µM,> 100 µM,> 100 µM,> 100 µM,> 100 µM,> 100 µM,> 100 µM,> 100 µM,> 100 µM
O=c1ccn(C2CC(O)C(CO)O2)c(=O)[nH]1 (stereo not drawn),> 5000 µM,> 5000 µM,> 5000 µM,> 5000 µM,> 5000 µM,> 5000 µM,> 5000 µM,> 5000 µM,> 5000 µM,> 5000 µM,> 5000 µM,> 5000 µM,> 5000 µM,> 5000 µM,1190 µM,> 5000 µM,> 5000 µM,> 5000 µM,> 5000 µM,> 5000 µM
COc1c(O)cc2oc(-c3ccc(O)cc3)cc(=O)c2c1O,,> 100 µM,,36.8 µM,,> 100 µM,,> 100 µM,,> 100 µM,,> 100 µM,,,,> 100 µM,,58.2 µM,,68.1 µM

# Source: PubChem BioAssay (NCI)
